Where two headings read alike, the source gives them in different places.
Tests used:
Mag-lipase = biological target: T1, Mag-lipase (Rattus norvegicus, UniProt Q8R431); assay: Inhibition of MAG-lipase: 2-AG metabolism to arachidonic acid; format: biochemical; conditions: 20 min, 30 nmoles compound with 30 nmoles 2-AG, 30 μg enzyme, 300 μL
T1 construct: supernatant from final spin in the anandamide amidase preparation; from tissue; host or cells: supernatant (soluble fraction) of the anandamide amidase preparation, rat brain by the cited procedure
T1 sequence (Q8R431 1-303): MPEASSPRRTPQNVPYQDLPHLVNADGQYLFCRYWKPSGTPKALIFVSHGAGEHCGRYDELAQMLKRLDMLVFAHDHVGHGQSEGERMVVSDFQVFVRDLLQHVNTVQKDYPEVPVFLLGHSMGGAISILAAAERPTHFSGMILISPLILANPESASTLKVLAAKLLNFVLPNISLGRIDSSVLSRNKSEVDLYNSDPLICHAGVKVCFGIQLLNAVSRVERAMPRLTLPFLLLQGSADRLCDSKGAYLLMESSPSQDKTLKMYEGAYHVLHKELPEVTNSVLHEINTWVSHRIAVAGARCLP
Procedure: All compound solutions were made to a concentration of 10 mM in DMSO. Three tests were performed on each compound: hydrolysis, to determine the stability of the compound in assay conditions without the enzyme present; metabolism, to determine the stability of the compound with the enzyme present; and inhibition of 2-Arachidonoyl glycerol (native substrate) metabolism to arachidonic acid.
The inhibition of 2-AG metabolism was measured by mixing 30 nmoles of the compound with 30 nmoles 2-AG, and 30 μg enzyme preparation in TME buffer (final volume of 300 μL). Again the reaction mixture was treated in the same manner as described above and the concentrations of 2-AG and AA were calculated using external standards. Percent inhibition was calculated using the following equation: % Inhib.=(AA20-AA0)i/(AA20-AA0)s where (AA20-AA0)i is the amount of arachidonic acid formed over 20 minutes from 2-AG with the inhibitor present and (AA20-AA0)s is the amount of arachidonic acid formed over 20 minutes from 2-AG when the inhibitor is not present. […] The reaction mixtures were treated as described above and the amount of AA formed was calculated. The software package GraphPad Prism was utilized to calculate IC50 and Ki. HPLC Conditions:
Chromatographic separation was achieved using an Ultrasphere ODS Pre-column (4.6×45 mm) from Beckman. Hardware consisted of a Waters Millennium HPLC system with a 20 μL injection loop. The mobile phase consisted of 8.5% o-phosphoric acid:acetonitrile (3:7), run isocratically at a rate of 1 mL/min and detection at 204 nm. The total run time was 8 minutes with 2-AG eluting at 3.0 minutes and AA at 6.0 minutes.

anandamide transporter = assay: [3H]Anandamide transporter competition assay; format: cell-based; conditions: human CCF-STG1 astrocytoma cells, 10 nM [3H]anandamide
Procedure: Human CCF-STG1 astrocytoma cells (American Type Culture collection) were grown in RPMI1640 culture medium containing 2 mM L-glutamine, 4.5 g/L glucose, 10 mM HEPES, and 1.0 mM sodium pyruvate, 10% FBS, cultures at 37° C. with 5% CO2. For standard competition assays, confluent cells grown in 24-well plates were rinsed and preincubated for 10 min at 37° C. in assay buffer (Hank's Balanced Salt Solution containing 0.1% DMSO, 10 mM HEPES) plus test compounds (at their final concentrations of 0.01-100 μM). After having discarded the preincubation media, the cells were incubated for 4 min in 0.2 ml assay buffer containing 10 nM [^3H] anandamide (137.6 Ci/mmol, New England Nuclear) plus test compounds. Reactions were stopped by removing the incubation media and rinsing the cells three times with 0.5 ml of ice-cold HBSS buffer containing 0.1% fatty acid-free Bovine Serum Albumin (sigma). Radioactive material in Triton X-100 cell extracts was measured by liquid scintillation counting. A minimum of three independent experiments conducted in six replicates was used to define the concentration needed to produce half-maximal inhibition (IC50) for each compound. IC50 values were obtained by nonlinear regression fitting of the data, using the PRIZM software package. Data are expressed as mean±SEM.

SMILES | inhibition at 100 µM (Mag-lipase) | IC50 (anandamide transporter; read-out: IC50 (AT inhib.)) | Mag-Lipase % Inhibition (Mag-lipase) | IC50 (anandamide transporter; read-out: IC50 AT inhibition)
[N-]=[N+]=NCCCC/C=C\C/C=C\C/C=C\C/C=C\CCCC(=O)NCC1CC1 [Compound A6] | 20.7% | – | – | –
CCCCC/C=C\C/C=C\C/C=C\C/C=C\CCCCNC(=O)NC[C@H](C)O [Compound B12] | 11.1% | 1.78 µM | – | –
CCCCCC=CCC=CCC=CCC=CCCCCOC(=O)NCC(C)O (centres unmarked) [Compound B3] | – | 1.5 µM | 14.3% | –
O=C(CCC/C=C\C/C=C\C/C=C\C/C=C\CCc1ccccc1)Nc1ccc(O)cc1 [Compound A3] | 16.7% | – | – | 9.1 µM
O=C(CCC/C=C\C/C=C\C/C=C\C/C=C\CCCCCBr)NC1CC1 [Compound A18] | 22.5% | – | – | 6.7 µM
O=C(CCC/C=C\C/C=C\C/C=C\C/C=C\CCc1ccccc1)Nc1nccs1 [Compound A4] | 9.2% | – | – | –
O=C(CCC/C=C\C/C=C\C/C=C\C/C=C\CCc1ccccc1)NCC1CC1 [Compound A2] | 37.5% | – | – | –
COc1cc(CNC(=O)CCC/C=C\C/C=C\C/C=C\C/C=C\CCCCN=[N+]=[N-])ccc1O [Compound A7] | 13.7% | – | – | –
O=C(CCC/C=C\C/C=C\C/C=C\C/C=C\CCCCc1ccccc1)NCC1CC1 [Compound A1] | 20.5% | – | – | –
CC/C=C\C/C=C\C/C=C\CCCCCCCCOC(=O)NC[C@H](C)O [Compound B15] | – | 4.5 µM | 24.6% | –
CCCCC/C=C\C/C=C\CCCCCCCCOC(=O)NC[C@H](C)O [Compound B14] | – | 7.21 µM | 25.8% | –

Reference: US8202893B2, “Cannabinergic lipid ligands” (University of Connecticut, priority 2004, dated 2012)
